From patent publication US20260092061A1, “COMPOUNDS FOR TARGETED PROTEIN DEGRADATION” (Amphista Therapeutics Limited, priority 2022, published 2026)

Columns and labels:
Type in all cases: cell-based
[1] = biological target: T1, BRD4 (Homo sapiens, UniProt O60885); test: BRD4 degradation, HiBiT-BRD4 HEK293 CRISPR CPM cells, NanoGlo Lytic Endpoint assay (Assay Protocol 1); conditions: HEK293; Table 3; assay 1; 1 μM compound at 5 h of treatment
T1 construct: HiBiT-BRD4 HEK293 CRISPR CPM (Promega CS302312); host or cells: HEK293, CRISPR-edited (HiBiT at the BRD4 locus)

[2] = biological target: T2, BRD7 (Homo sapiens, UniProt Q9NPI1); test: BRD7 degradation, HiBiT-BRD7 KI HEK293 (LgBiT) cells, NanoGlo Lytic Endpoint assay (Assay Protocol 1); conditions: HEK293; Table 3; assay 1; 1 μM compound at 5 h of treatment
T2 construct: HiBiT-BRD7 KI HEK293 (LgBiT) Cells (Promega CS3023410); host or cells: HEK293 (LgBiT), HiBiT knock-in at the BRD7 locus
T2 sequence (Q9NPI1 1-651): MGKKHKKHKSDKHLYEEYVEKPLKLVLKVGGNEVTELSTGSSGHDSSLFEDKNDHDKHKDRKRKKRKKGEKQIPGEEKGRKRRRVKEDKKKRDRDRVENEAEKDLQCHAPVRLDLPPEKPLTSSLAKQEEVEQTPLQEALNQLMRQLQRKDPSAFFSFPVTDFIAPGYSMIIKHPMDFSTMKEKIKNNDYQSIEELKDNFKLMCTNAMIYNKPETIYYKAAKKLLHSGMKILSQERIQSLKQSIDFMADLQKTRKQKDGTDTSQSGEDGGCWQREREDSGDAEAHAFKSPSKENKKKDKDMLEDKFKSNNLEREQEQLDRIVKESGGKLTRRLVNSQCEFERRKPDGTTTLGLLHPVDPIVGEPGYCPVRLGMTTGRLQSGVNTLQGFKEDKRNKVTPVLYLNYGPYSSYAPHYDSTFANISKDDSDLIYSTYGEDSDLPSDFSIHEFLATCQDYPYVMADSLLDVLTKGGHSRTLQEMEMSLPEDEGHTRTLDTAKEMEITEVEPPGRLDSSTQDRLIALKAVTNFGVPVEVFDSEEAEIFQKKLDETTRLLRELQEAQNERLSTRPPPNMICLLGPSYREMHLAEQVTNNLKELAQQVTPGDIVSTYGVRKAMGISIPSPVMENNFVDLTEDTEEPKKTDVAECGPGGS

[3] = biological target: T3, BRD9 (Homo sapiens, UniProt Q9H8M2); test: BRD9 degradation, HiBiT-BRD9 KI HEK293 (LgBiT) cells, NanoGlo Lytic Endpoint assay (Assay Protocol 1); conditions: Table 3; assay 1; 5 h of treatment
T3 sequence (Q9H8M2 1-597): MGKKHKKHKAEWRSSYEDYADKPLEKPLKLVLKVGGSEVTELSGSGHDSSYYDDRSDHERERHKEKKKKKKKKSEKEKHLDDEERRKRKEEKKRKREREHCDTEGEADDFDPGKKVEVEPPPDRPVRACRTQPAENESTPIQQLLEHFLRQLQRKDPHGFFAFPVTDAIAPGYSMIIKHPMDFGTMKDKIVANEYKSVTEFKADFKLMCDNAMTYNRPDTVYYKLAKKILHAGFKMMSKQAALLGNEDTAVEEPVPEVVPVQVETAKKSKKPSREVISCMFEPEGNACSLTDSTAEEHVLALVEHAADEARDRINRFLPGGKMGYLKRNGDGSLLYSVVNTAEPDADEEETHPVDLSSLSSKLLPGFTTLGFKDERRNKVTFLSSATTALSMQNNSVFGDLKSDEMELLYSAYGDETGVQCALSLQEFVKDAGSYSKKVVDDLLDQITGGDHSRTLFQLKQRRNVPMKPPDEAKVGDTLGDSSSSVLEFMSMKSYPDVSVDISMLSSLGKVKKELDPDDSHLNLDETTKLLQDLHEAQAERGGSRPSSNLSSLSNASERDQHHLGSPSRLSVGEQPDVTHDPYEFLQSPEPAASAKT

Structure (SMILES) | Dmax [1] | Dmax at 1 µM [2] | DC50 [3]
COc1cc(-c2cn(C)c(=O)c3cnccc23)cc(OC)c1CN(C)Cc1cccc2c1CCN(C(=O)/C(C#N)=C/c1cccc(Br)n1)C2C (mixture of isomers) [Compound A50] | < 25% | 25 to 40% | < 1.25 nM
COc1cc(-c2cn(C)c(=O)c(C)c2C)cc(OC)c1CN1CCC(Oc2cccc3c2CCN(C(=O)/C(C#N)=C/c2cccc(Br)n2)C3C)CC1 (mixture of isomers) [Compound A68, (E/Z)-3-(6-bromopyridin-2-yl)-2-(5-((1-(2,6-dimethoxy-4-(1,4,5-trimethyl-6-oxo-1,6-dihydropyridin-3-yl)benzyl)piperidin-4-yl)oxy)-1-methyl-1,2,3,4-tetrahydroisoquinoline-2-carbonyl)acrylonitrile] | < 25% | < 25% | 1.25 to 10 nM
COc1cc(-c2cn(C)c(=O)c(C)c2C)cc(OC)c1CN1CC2CC(C1)N2Cc1cccc2c1CCN(C(=O)/C(C#N)=C/C(C)(C)C)C2C (mixture of isomers) [Compound A71, (E/Z)-2-(5-((3-(2,6-dimethoxy-4-(1,4,5-trimethyl-6-oxo-1,6-dihydropyridin-3-yl)benzyl)-3,6-diazabicyclo[3.1.1]heptan-6-yl)methyl)-1-methyl-1,2,3,4-tetrahydroisoquinoline-2-carbonyl)-4,4-dimethylpent-2-enenitrile] | 25 to 40% | 40 to 70% | 1.25 to 10 nM
COc1cc(-c2cn(C)c(=O)c(C)c2C)cc(OC)c1CN1CCCN(Cc2cccc3c2CCN(C(=O)/C(C#N)=C/C(C)(C)C)C3C)CC1 (mixture of isomers) [Compound A72, (E/Z)-2-(5-((4-(2,6-dimethoxy-4-(1,4,5-trimethyl-6-oxo-1,6-dihydropyridin-3-yl)benzyl)-1,4-diazepan-1-yl)methyl)-1-methyl-1,2,3,4-tetrahydroisoquinoline-2-carbonyl)-4,4-dimethylpent-2-enenitrile] | < 25% | < 25% | 10 to 25 nM
